Patent US7371364B2, “Cyclic peptide and imaging compound compositions and uses for targeted imaging and therapy” (Board of Regents, The University of Texas System, priority 2003, dated 2008)
Positions of bridges follow the written chain, without caps; N, C: chain ends. No end group written: not given here.

Experiments:
[1] = test system: KS1767 tumors; assay: In vivo NIR imaging of subcutaneous KS1767 tumors with RGD imaging agent; parameters: species or system mice; settings: subcutaneous KS1767 tumors, i.v. 6 nmol/mouse, image 24 hours after injection
Text: Cy5.5-c(KRGDf; SEQ ID NO. 3) may be used in near infrared (NIR) imaging. Mice inoculated with KS1767 were used for in vivo NIR studies. The mice were four to six week-old athymic nude mice (18-22 g, Harlan Sprague Dawley, Inc. Indianapolis, Ind.) which were housed 5 per cage and fed with sterilized pellet chow (Harlan Sprague Dawley) and sterilized water. The animals were maintained in a pathogen-free mouse colony in the Department of Veterinary Medicine at the University of Texas M.D. Anderson Cancer Center. All experiments were performed in accordance with the guidelines of the Institutional Animal Care and Use Committee.
Tumor cells for use in the animals were harvested near confluence by incubation with 0.05% trypsin-EDTA. Cells were pelleted by centrifugation at 450×g for 5 minutes and resuspended in sterile PBS. […] cells/animal were implanted subcutaneously into the chest wall or hind legs of the mice. Imaging studies were performed when tumors reached 4-6 mm in average diameter.
In vivo fluorescence imaging was accomplished by illuminating the animal with light from a laser diode (35 mW) expanded to an approximate 8 cm diameter circular area. The fluorescent light re-emitted from the animal was collected by an image intensifier (model FS9910C, ITT Night Vision, Roanoke, Va.) lens-coupled to a CCD camera (model CH350, Photometrics, Tucson, Ariz.). The imaging was designed so that the field of view could be varied from 3×3 cm to over 12×12 cm by varying the image distance of the 50 mm lens used to focus the image onto the photocathode of the intensifier. The lens was fitted with a holographic notch-plus filter (660 nm center wavelength; Kaiser Optical Systems, Inc., Ann Arbor, Mich.) and a bandpass filter (710 nm center wavelength) to reject back-scattered and reflected excitation photons. Image acquisition was accomplished using V++ software (Digital Optics, Auckland, New Zealand) and the obtained images were stored in uncompressed tagged image file format (tiff). Data processing and analysis were accomplished using Matlab software (The MathWorks, Inc., Natick, Mass.). For all imaging sessions, the image acquisition parameters were kept constant, and each image required 800 ms of camera integration.
For dynamic in vivo fluorescence imaging, mice were anesthetized with an i.p. injection of 50 mg/kg pentobarbital, and a catheter was placed in the tail vein for i.v. injection of NIR dyes. A white-light image of the animal was obtained using a low-power lamp as a white light source with holographic and interference filters removed. Fluorescence images were then acquired as a function of time following administration of Cy5.5 (6 nmol per/mouse) or Cy5.5-c(KRGDf; SEQ ID NO. 3) (6 nmol per/mouse). […]

[2] = test system: human tumor cells; assay: In vitro tumor cell binding study (fluorescence microscopy); format: cell-based; settings: SKBr-3, HT1080, MDA-MB-435, MDA-MB-468, U87 (PC-3 and U87 for the Tyr analogue); 37° C.
Method: All human tumor cell-lines were obtained from American Type Culture Collection (Rockville, Md.) and were maintained at 37° C. in a humidified atmosphere containing 5% CO2 in Dulbecco's Modified Eagle's Medium/Nutrient Mixture F-12 Ham (DMEM/F12) and 10% FBS (Gibco, Grand Island, N.Y.).
Cells were seeded on cover slips in 24-well plates (Becton Dickinson Labware, Franklin Lakes, N.J.) and incubated in DMEM/F12 culture medium (0.5 ml/well) overnight. Cy5.5 and Cy5.5-HWG polypeptide imaging agents were added into each well at the indicated concentrations. For the blocking study, doxycycline was added to the culture medium followed by the addition of Cy5.5-HWG polypeptide imaging agent 1 hour later. After an incubation period of 5-60 minutes at 37° C., cells were washed twice with PBS and incubated in a solution of Sytox Green in 95% ethyl alcohol (1 μM, Molecular Probe, Eugene, Oreg.) for 15 minutes to fix and stain cell nuclei. For staining of MMP expression, cells that were pretreated with Cy5.5-HWG polypeptide and stained with Sytox Green were incubated with anti-MMP antibody (Sigma) (1 mg/ml; 1:200 dilution) for 1 hour at room temperature. The cells were then washed and incubated with Texas Red conjugated go at anti-rabbit IgG (Molecular Probe, 4 μg/ml) at room temperature for 1 hour. Cells were washed again with PBS and the cover slips were mounted for microscopic examination using a DMR microscope (Leica Microsystems, Inc., Brannockburn, Ill.). The microscope was equipped with a 75W Xenon lamp, 775 nm/845 nm, 560 nm/645 nm, and 480 nm/535 nm (Excitation/emission) filters (Chroma Technology Corp., Brattleboro, Vt.), a Hamamatsu B/W Chilled CCD camera (Hamamatsu Photonics K.K., Hamamatsu City, Japan), and Image-Pro Plus 4.5.1 software (Media Cybernetics, Silver Spring, Md.). In the multiple staining images, Cy5.5, MMPs, and Sytox Green were pseudocolored red, green, and blue, respectively.

[3] = test system: SKBr-3 tumors; assay: In vivo NIR fluorescent imaging with HWG imaging agent; parameters: species or system mice; settings: 4 days after i.v. injection, 15 nmol per mouse
Method: Four to six week-old athymic nude mice (18-22 g, Harlan Sprague Dawley, Inc., Indianapolis, Ind.) were housed 5 per cage with sterilized pet chow (Harlan Sprague Dawley) and sterilized water. Animals were maintained in a pathogen-free mouse colony in the Department of Veterinary Medicine at the University of Texas M.D. Anderson Cancer Center. All experiments were performed in accordance with the guidelines of the Institutional Animal Care and Use Committee. Tumor cells were harvested near confluence by incubation with 0.05% trypsin-EDTA. Cells were pelleted by centrifugation at 450×g for 5 minutes and resuspended in sterile PBS. Cells (2-3×10^6/animal) were implanted subcutaneously into the chest wall or the hind legs of the mice. Human PC-3 prostate tumors were obtained by intratibia injection of PC-3 cells into male nude mice. Human U87 glioma tumors were obtained by intracranial injection.
In vivo fluorescence imaging was accomplished by illuminating the animal with light from a laser diode (785 nm, 80 mW for IGC; 660 nm, 35 mW for Cy 5.5 dyes) expanded to an approximate 8 cm diameter circular area. The re-emitted fluorescent light was collected by an image intensifier (model FS9910C, ITT Night Vision, Roanoke, Va.) lens-coupled to a CCD camera (model CH350, Photometrics, Tucson, Ariz.). The imaging was designed so that the field of view could be varied from 3×3 cm to over 12×12 cm by varying the image distance of the 50 mm lens used to focus the image onto the photocathode of the intensifier. The lens was fitted with a holographic notch-plus filter (785 nm center wavelength for ICG and 660 nm center wavelength for Cy5.5 dyes; Kaiser Optical Systems, Inc., Ann Arbor, Mich.) and a bandpass filter (830 nm center wavelength for ICG, 710 nm center wavelength for Cy5.5 dyes) to reject back-scattered and reflected excitation photons. Image acquisition was accomplished using V++ software (Digital Optics, Auckland, New Zealand) and obtained images were stored in uncompressed tagged image file format (tiff). Data processing and analysis was accomplished using Matlab software (The Math Works, Inc., Natick, Mass.).

[4] = target: T1, pre-activated MMP-2 (gelatinase A), Chemicon assay (UniProt P08253 110-660, limits assumed); assay: cell-based or functional assay
T1 sequence (looked up): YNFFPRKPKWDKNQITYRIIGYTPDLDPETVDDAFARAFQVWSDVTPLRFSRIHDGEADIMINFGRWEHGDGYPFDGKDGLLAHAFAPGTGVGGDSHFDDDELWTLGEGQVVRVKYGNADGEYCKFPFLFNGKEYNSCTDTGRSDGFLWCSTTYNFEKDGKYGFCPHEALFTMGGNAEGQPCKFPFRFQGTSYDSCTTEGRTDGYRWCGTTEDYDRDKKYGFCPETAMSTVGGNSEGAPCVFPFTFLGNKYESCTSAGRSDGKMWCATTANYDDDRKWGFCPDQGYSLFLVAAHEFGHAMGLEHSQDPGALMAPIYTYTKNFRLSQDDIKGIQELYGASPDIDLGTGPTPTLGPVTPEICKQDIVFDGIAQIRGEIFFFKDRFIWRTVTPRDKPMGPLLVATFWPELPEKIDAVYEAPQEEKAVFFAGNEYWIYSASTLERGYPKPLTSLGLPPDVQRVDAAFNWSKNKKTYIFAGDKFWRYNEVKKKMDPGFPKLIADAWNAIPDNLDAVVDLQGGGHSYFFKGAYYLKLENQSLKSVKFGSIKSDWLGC

[5] = target: T2, αvβ3 integrin (on KS1767 cells) (UniProt P06756 31-1048; P05106 27-788); assay: control in the KS1767 cell adhesion assay on vitronectin-coated wells (FIG. 31)
T2 construct: whole, on cells; also called integrin αvβ3
Method: A Cell Adhesion Assay was additionally performed. KS1767 cells were seeded in DMEM/F12 culture medium supplemented with 10% fetal bovine serum for 24 hr. Cells (1×10^5) with different concentrations of c(KRGDf; SEQ ID NO. 3) or Cy5.5-c(KRGDf; SEQ ID NO. 3) were added to vitronectin-coated microliter wells under serum-free conditions and incubated at 37° C. for 1 hr. After washing steps, the bound cells were stained with 5% crystal violet, followed by addition of 0.1M HCl to each well. The concentrations of crystal violet were determined by UV/V is absorption at 627 nm. $IC50$ values were estimated from the dose-activity curves.

T2 sequence (P06756 31-1048, chain 1 of 2): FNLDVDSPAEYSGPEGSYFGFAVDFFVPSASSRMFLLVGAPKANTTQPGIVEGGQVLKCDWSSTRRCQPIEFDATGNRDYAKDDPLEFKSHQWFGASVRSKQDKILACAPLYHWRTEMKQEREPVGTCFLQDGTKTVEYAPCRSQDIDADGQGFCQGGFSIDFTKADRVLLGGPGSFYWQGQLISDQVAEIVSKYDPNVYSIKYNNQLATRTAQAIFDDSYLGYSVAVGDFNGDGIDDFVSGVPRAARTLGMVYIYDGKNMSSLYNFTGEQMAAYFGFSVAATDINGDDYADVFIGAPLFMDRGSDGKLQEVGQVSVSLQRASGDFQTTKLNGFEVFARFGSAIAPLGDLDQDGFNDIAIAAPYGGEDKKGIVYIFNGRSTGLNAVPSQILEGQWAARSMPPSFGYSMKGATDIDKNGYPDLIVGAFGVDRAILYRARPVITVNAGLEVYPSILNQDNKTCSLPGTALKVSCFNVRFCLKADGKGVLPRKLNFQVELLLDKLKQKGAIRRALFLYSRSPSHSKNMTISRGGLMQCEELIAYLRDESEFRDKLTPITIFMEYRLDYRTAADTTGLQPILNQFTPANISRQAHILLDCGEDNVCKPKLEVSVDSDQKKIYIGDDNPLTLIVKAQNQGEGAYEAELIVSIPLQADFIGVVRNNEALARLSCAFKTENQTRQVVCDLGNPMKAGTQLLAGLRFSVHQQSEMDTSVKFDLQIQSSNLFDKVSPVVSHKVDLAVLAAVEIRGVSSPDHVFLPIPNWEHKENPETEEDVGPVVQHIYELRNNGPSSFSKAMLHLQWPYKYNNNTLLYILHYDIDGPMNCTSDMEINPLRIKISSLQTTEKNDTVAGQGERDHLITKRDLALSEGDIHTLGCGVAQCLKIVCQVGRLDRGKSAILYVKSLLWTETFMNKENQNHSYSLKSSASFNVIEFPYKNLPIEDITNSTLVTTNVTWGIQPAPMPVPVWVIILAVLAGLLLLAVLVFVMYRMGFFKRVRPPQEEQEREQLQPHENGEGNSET
T2 sequence (P05106 27-788, chain 2 of 2): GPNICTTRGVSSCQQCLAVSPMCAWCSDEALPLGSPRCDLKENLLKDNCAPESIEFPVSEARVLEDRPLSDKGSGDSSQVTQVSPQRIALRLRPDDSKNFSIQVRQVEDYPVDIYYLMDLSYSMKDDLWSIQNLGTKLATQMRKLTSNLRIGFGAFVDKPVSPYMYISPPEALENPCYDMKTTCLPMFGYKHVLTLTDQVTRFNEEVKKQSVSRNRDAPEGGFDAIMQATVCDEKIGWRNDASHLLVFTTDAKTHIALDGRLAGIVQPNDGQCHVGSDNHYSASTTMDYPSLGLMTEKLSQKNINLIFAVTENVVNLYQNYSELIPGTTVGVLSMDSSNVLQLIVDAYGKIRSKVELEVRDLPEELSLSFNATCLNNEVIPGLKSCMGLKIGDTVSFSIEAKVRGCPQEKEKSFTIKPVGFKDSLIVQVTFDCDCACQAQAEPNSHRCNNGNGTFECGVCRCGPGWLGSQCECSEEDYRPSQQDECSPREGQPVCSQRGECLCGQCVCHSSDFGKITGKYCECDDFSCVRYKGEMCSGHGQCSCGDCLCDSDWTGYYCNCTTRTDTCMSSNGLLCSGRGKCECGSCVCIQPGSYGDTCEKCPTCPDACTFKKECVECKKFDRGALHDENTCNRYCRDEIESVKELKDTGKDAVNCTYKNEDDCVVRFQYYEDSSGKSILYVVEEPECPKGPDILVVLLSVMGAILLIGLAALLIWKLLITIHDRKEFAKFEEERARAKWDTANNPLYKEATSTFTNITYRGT

Molecule: Cy5.5 [reference compound]
- Tumor targeting / uptake in NIR image [1]: almost no optical activity uptake
- Binding to tumor cells [2]: did not display significant binding
- Fluorescent signal in tumor [3]: minimal fluorescence

B1: c(KAHWGFTLD)NH2 (SEQ ID NO. 10) (side chain-to-side chain linkage) (peptide)
peptide: KAHWGFTLD
HELM: PEPTIDE1{K.A.H.W.G.F.T.L.D.[am]}$PEPTIDE1,PEPTIDE1,1:R3-9:R3$$$V2.0; N-terminus assumed
SMILES: CC(C)C[C@@H]1NC(=O)[C@H]([C@@H](C)O)NC(=O)[C@H](Cc2ccccc2)NC(=O)CNC(=O)[C@H](Cc2c[nH]c3ccccc23)NC(=O)[C@H](Cc2c[nH]cn2)NC(=O)[C@H](C)NC(=O)[C@@H](N)CCCCNC(=O)C[C@@H](C(N)=O)NC1=O
- IC50 of MMP-2 enzyme inhibition (biotinylated gelatinase substrate cleavage assay) [4]: 5.5 µM

Molecule: Ac-ACNGRCG (bridge 2-6; also: kind of ring closure not given here, also called control cyclic pentapeptide) [Ac-A-c(CNGRC)-G]
- binding result [5]: no binding
